Values after ≈ are worked out from the molar mass of the structure shown.
What was measured:
[1] = test system: E. coli of an unknown strain; experiment: pH and ORP growth curves of E. coli with Ciprofloxacin in diagnostic device 102 (FIGS. 7A and 7B); type: cell-based
Text: FIGS. 7A and 7B illustrate pH growth curves and ORP growth curves of E. coli in the presence of various concentrations of the antibiotic Ciprofloxacin, respectively. The growth curves were generated using a computing device 158 coupled to a parameter analyzer 156 coupled to the diagnostic device 102. Similar types of growth curves can also be generated using the computing device 158 coupled to the parameter analyzer 156 coupled to the diagnostic device 202.
An inoculum solution 110 comprising E. coli of an unknown strain (e.g., a positive blood culture (PBC) diluted to 5×10^5 colony-forming units (CFU)/mL of E. coli in Mueller Hinton (MH) broth) was introduced to the sample receiving space 112 of the diagnostic device 102. The inoculum solution 110 was allowed to fill the plurality wells 120 of the diagnostic device 102 including the growth control wells 134 and a number of active electrode wells 136. A water immiscible liquid 152 was then introduced into the sample receiving space 112 to seal the wells 120 and the entire diagnostic device 102 was incubated at an elevated temperature.
The computing device 158 generated the growth curves based on changes in the solution characteristics (e.g., changes in pH of the pH electrode wells 126 and changes in ORP of the ORP electrode wells 128) of the inoculum solution 110 within the growth control wells 134 and the various active electrode wells 136. The growth control wells 134 comprised at least one pH electrode well 126 and at least one ORP electrode well 128 devoid of the antibiotic. The active electrode wells 136 comprised dried Ciprofloxacin at concentrations of 2 μg/mL, 4 μg/mL, 8 μg/mL, 16 μg/mL, and 32 μg/mL.
This curve pattern or shape can be attributed to cellular activity undertaken by the active E. coli within the growth control wells 134. FIGS. 7A and 7B also illustrate that the three growth curves generated from measurements of the inoculum solution 110 within the active electrode wells 136 comprising 2 μg/mL and 4 μg/mL of Ciprofloxacin mimicked and followed the growth pattern of the inoculum solution 110 within the growth control wells 134.

[2] = test system: E. coli of an unknown strain; experiment: pH growth curves of E. coli with Levofloxacin in diagnostic device 102 (FIG. 6); type: cell-based; conditions: Escherichia coli, E. coli diluted in Mueller Hinton broth, wells with 1, 2 and 4 μg/mL, read-out: minimum inhibitory concentration (MIC)
Text: FIG. 6 illustrates pH growth curves of E. coli in the presence of various concentrations of the antibiotic Levofloxacin. The growth curves were generated using a computing device 158 coupled to a parameter analyzer 156 coupled to the diagnostic device 102. Similar types of growth curves can also be generated using the computing device 158 coupled to the parameter analyzer 156 coupled to the diagnostic device 202. An inoculum solution 110 comprising E. coli of an unknown strain (diluted in Mueller Hinton (MH) broth) was introduced to the sample receiving space 112 of the diagnostic device 102. The inoculum solution 110 was allowed to fill the plurality wells 120 of the diagnostic device 102 including the growth control wells 134 and a number of active electrode wells 136. A water immiscible liquid 152 was then introduced into the sample receiving space 112 to seal the wells 120 and the entire diagnostic device 102 was incubated at an elevated temperature. The computing device 158 generated the growth curves based on a change in the pH of the inoculum solution 110 within a growth control well 134 and three active electrode wells 136. The growth control well 134 comprised a pH electrode 130 within the well and was devoid of the antibiotic. […]

## O=C(O)c1cn(C2CC2)c2cc(N3CCNCC3)c(F)cc2c1=O [Ciprofloxacin]
[1]; Ciprofloxacin 2 μg/mL and 4 μg/mL, curves followed growth control
  susceptibility of the strain at the concentration: resistant or not susceptible
[1]; Ciprofloxacin 8 μg/mL, delayed change in pH and ORP
  susceptibility of the strain at the concentration: intermediate susceptibility
[1]; Ciprofloxacin 16 μg/mL and 32 μg/mL, curves substantially flat lines
  growth of E. coli in active electrode wells: no noticeable growth
[1]; based on MIC from pH and ORP growth curves
  susceptibility of the strain (overall): generally resistant

## C[C@H]1COc2c(N3CCN(C)CC3)c(F)cc3c(=O)c(C(=O)O)cn1c23 [Levofloxacin]
[2]
  MIC: 1 µg/mL (≈ 2.77 µM)

— patent US12129509B2, “Apparatus, systems, and methods for determining the susceptibility of infectious agents to anti-infectives” (priority 2018, dated 2024)
